Where a name gives a salt, the structure may show the parent alone. Read-outs that look alike come from different tables or passages of the source. Marks after values point to notes of the source that are not given here.
Legend:
[1] = Cardiac indexes, Bel-7402 HCC mice; assay type: in vivo, nude mice; details: high dose, after treatment
[2] = Cardiac indexes, HepG2 HCC mice; assay type: in vivo, nude mice; details: low dose, after treatment
HepG2 = experiment: Drug concentration in tumor cells by HPLC, HepG2; assay type: cell-based, human; details: incubated 2 hours
Protocol: (§1) When the density of HCC cells reached to 3 × 10^6/ml, they were trypsinized and centrifuge (4°C, 800rpm, 5min), then discarded the supernatant, dropping medium 3 ml and evenly mixed. Cell suspension was divided into three groups (control group, Doxorubicin-tripeptide conjugate group and Doxorubicin group). The drug concentration was 0.01 mg/ml for cultured 2 hours avoiding light. Then the cells obtained by centrifugation were proceeded by the following steps: washed 3 times with 1 ml normal saline, added 0.5 ml ultra pure water (Millipore), broken by ultrasonic wave, drooped in acetonitrile (Tianjin Concord Technology Co. Ltd, China) 0.5 ml, mixed, ultrasonic oscillation for 10 mins, centrifuge (1200 rpm, 15 min), take the supernatant, filtration with filter membrane, take 20 μl for HPLC analysis (Agilent 1100 HPLC system, USA).
(§2) Chromatographic conditions were as follows: chromatographic column: DIONEX Acclaim 120 C18 (2.1 × 250 mm, 5 μm 120A), Mobile phase: Acetonitrile-0.2%NaH2PO4 aqueous solution (35: 65), Velocity: 0.35 ml/min, column temperature: 30°C, DAD, 254 nm, sample size: 20 μl. […] According to the chromatographic condition, the retention time (tR), peak position time, chromatographic behavior, resolution (R), the minimum detectable concentration and the intracellular drug concentration of these two drugs were detected in turn.

HepG2 HCC = system: HepG2 HCC
Excerpt: (§3) An animal model of HCC cells (Bel-7402, HepG2) transplanted into nude mice was established according to the method described in ref. 10.

Bel-7402 HCC = details: for Inhibition rate: from tumor weight vs control
Excerpt: as §3

[3] = Blood routine, HepG2 HCC mice; assay type: in vivo, nude mice; details: low dose, after treatment
Bel-7402 = experiment: Drug concentration in tumor cells by HPLC, Bel-7402; assay type: cell-based, human; details: incubated 2 hours
Protocol: as §1, §2

Caco2 = experiment: Drug concentration in tumor cells by HPLC, Caco2; assay type: cell-based, human; details: incubated 2 hours

With `COc1cccc2c1C(=O)c1c(O)c3c(c(O)c1C2=O)C[C@@](O)(C(=O)CO)C[C@@H]3O[C@H]1C[C@H](N)[C@H](O)[C@H](C)O1` [Doxorubicin, Doxorubicin hydrochloride] the AST [1] was 1400.83 ± 506.35^a U/L, the CK [1] was 1357.83 ± 504.33^ac U/L and the CK-Mb [1] was 823.17 ± 342.53 U/L. For the same compound, the GSH-PX [1] was 462.36 ± 100.90^a U, the LDH [1] was 5811.67 ± 3290.44 U/L and the MDA [1] was 3.43 ± 0.35^a nmol/mg. The SOD [1] was 151.60 ± 18.08^a U/mg, the AST [2] was 989.25 ± 145.74 U/L and the CK [2] was 1160.50 ± 164.82 U/L. The CK-Mb [2] was 797.00 ± 155.90^a U/L, the GSH-PX [2] was 515.57 ± 146.57^a U and the LDH [2] was 6958.50 ± 991.50 U/L. For the same compound, the MDA [2] was 3.97 ± 0.50 nmol/mg, the SOD [2] was 135.63 ± 16.22^a U/mg and the “drug concentration in tumor cells” value (HepG2) was 2320 ± 30 ng/mL. For the same compound, the median survival time (HepG2 HCC; HepG2, low dose group) was 26.5 days, the deaths during treatment (HepG2 HCC; HepG2, low dose group, 5W) was 3 deaths and 1 death respectively in the treatment of 3W+ and 4W+ and the “Tumor volume, Before treatment” value (HepG2 HCC; HepG2 HCC mice, baseline) was 0.32 ± 0.30 cm^2. The “Tumor volume (third column, no sub-head; actual volume at end of experiment)” value (HepG2 HCC; HepG2 HCC mice, low dose) was 0.50 ± 0.46 cm^2, the “Tumor volume, After treatment” value (HepG2 HCC; HepG2 HCC mice, low dose: Doxorubicin 40 mg/m^2, conjugate 200 mg/m^2) was 0.64 ± 0.61 cm^2 and the Tumor weight (HepG2 HCC; HepG2 HCC mice, low dose, end of treatment) was 1.66 ± 0.98 g. The “Mice weight, Before treatment” value (HepG2 HCC; mouse, in vivo) was 21.23 ± 4.97 g, the median survival time (Bel-7402 HCC; Bel-7402, high dose group) was 25.5 days and the deaths during treatment (Bel-7402 HCC; Bel-7402, high dose group, 5W) was 1 death and 2 deaths and 1 death in the treatment of 2W+, 3W+ and 4W+ respectively. The “Tumor volume, Before treatment” value (Bel-7402 HCC; Bel-7402 HCC mice, baseline) was 0.38 ± 0.28 cm^2, the “Tumor volume (third column, no sub-head; actual volume at end of experiment)” value (Bel-7402 HCC; Bel-7402 HCC mice, high dose) was 0.27 ± 0.16 cm^2 and the “Tumor volume, After treatment” value (Bel-7402 HCC; Bel-7402 HCC mice, high dose: Doxorubicin 60 mg/m^2, conjugate 300 mg/m^2) was 0.42 ± 0.33 cm^2. For the same compound, the Tumor weight (Bel-7402 HCC; Bel-7402 HCC mice, high dose, end of treatment) was 1.30 ± 0.41 g, the Inhibition rate (Bel-7402 HCC; Bel-7402 HCC mice, high dose) was 32.35% and the Inhibition rate (Bel-7402 HCC; Bel-7402 HCC mice, high dose, listed as C) was 32.35^c %. For the same compound, the “Mice weight, Before treatment” value (Bel-7402 HCC; mouse, in vivo) was 23.15 ± 1.60 g, the PLT [3] was 72.53 ± 25.46 ^a ×10^9/l and the RBC [3] was 7.55 ± 1.33 ×10^12/l. The WBC [3] was 4.90 ± 3.60 ×10^9/l, the “drug concentration in tumor cells” value (Bel-7402) was 2420 ± 30 ng/mL and the “drug concentration in tumor cells” value (Caco2) was 2730 ± 40 ng/mL.

Reference: publication PMC5522267, “Targeting PEPT1: a novel strategy to improve the antitumor efficacy of doxorubicin in human hepatocellular carcinoma therapy” (Oncotarget, 2017)
